Assay results from patent US11826351B2, “Compounds useful as kinase inhibitors” (Loxo Oncology, Inc., priority 2015, dated 2023).

Columns and labels:
Recombinant EGFR = molecular target: T1, Recombinant EGFR (Homo sapiens, UniProt P00533); assay: EGFR binding affinity (LanthaScreen TR-FRET); details: Kinase Tracer 199, 5 h incubation
T1 construct: purchased Invitrogen
Experimental: EGFR binding affinity was determined using a time-resolved fluorescence resonance energy transfer (TR-FRET) methodology. […] Recombinant EGFR and all LanthaScreen™ components were purchased from Invitrogen. Measurements were performed in a reaction volume of 30 μL using half-area 96-well assay plates. […] Binding affinity was determined for each compound by measuring TR-FRET signal at various concentrations of compound and plotting the relative fluorescence units against the inhibitor concentration to estimate the IC50 from log[Inhibitor] vs response using the Variable Slope model in Graphpad prism from Graphpad software (San Diego, Calif.).

[1] = system: OCI-Ly10 human DLBCL cells; assay: OCI-Ly10 anti-proliferative activity (Resazurin); format: cell-based; details: Homo sapiens, OCI-Ly10, 72 h, OCI-Ly10 cells, 72 h compound treatment, Resazurin; read-out: Proliferation Assay OCI-Ly10-20% FBS
Experimental: Compounds were assayed for effects on the growth of OCI-Ly10 human DLBCL cells that are dependent on NFκB signalling. […] Cells were then plated at 7.5×10^3 cells per well in 96-well plates in varying concentrations of compound and incubated for 72 h at 37° C. An additional plate of cells to be used as the Day 0 read was seeded without compound addition, Resazurin was added to each well, incubated for 5 h and the fluorescence measured at 590 nm. After 72 h of compound treatment, Resazurin was added to each well of the compound treated plates, incubated for 5 h and the fluorescence measured at 590 nm. The IC50 was then calculated by subtracting the average Day 0 value from each well value from the treated plates, each treatment was then calculated as a percentage of the DMSO control and the percentages plotted against the inhibitor concentration to estimate the IC50 from log[Inhibitor] vs response using the Variable Slope model in Graphpad prism from Graphpad software (San Diego, Calif.).

[2] = molecular target: T2, Recombinant BTK^C481S kinase (Homo sapiens, UniProt Q06187, C481S); assay: BTK C481S binding affinity (LanthaScreen TR-FRET); details: Kinase Tracer 236, 5 h incubation
T2 construct: purchased SignalChem
Experimental: (§1) BTK^C481S binding affinity of each compound tested was determined using a time-resolved fluorescence resonance energy transfer (TR-FRET) methodology. 5 nM Recombinant BTK^WT kinase, varying concentrations of inhibitor, 2 nM LanthaScreen™ Eu anti-His Antibody and 30 nM Kinase Tracer 236 was incubated in 1× LanthaScreen™ Kinase Buffer A for 5 h. Recombinant BTK^C481S kinase was purchased from SignalChem and all LanthaScreen™ components were purchased from Invitrogen. Measurements were performed in a reaction volume of 30 μL using half-area 96-well assay plates. The TR-FRET signal was read on a plate reader with an excitation wavelength of 340 nm and detection wavelengths of 615 and 665 nm. Binding affinity was determined for each compound by measuring TR-FRET signal at various concentrations of compound and plotting the relative fluorescence units against the inhibitor concentration to estimate the IC50 from log[Inhibitor] vs response using the Variable Slope model in Graphpad prism from Graphpad software (San Diego, Calif.).

[3] = molecular target: T3, Recombinant BTK^WT kinase (Homo sapiens, UniProt Q06187); assay: BTK WT binding affinity (LanthaScreen TR-FRET); details: Kinase Tracer 236, 5 h incubation
T3 construct: purchased Invitrogen
Experimental: as §1, with “BTK^WT binding” for “BTK^C481S binding”, “methodology. 2.5” for “methodology. 5”, “and 15” for “and 30”, “Recombinant BTK” for “Recombinant BTK^C481S”, “kinase” for “kinase was purchased from SignalChem”

T3 sequence (Q06187 whole entry): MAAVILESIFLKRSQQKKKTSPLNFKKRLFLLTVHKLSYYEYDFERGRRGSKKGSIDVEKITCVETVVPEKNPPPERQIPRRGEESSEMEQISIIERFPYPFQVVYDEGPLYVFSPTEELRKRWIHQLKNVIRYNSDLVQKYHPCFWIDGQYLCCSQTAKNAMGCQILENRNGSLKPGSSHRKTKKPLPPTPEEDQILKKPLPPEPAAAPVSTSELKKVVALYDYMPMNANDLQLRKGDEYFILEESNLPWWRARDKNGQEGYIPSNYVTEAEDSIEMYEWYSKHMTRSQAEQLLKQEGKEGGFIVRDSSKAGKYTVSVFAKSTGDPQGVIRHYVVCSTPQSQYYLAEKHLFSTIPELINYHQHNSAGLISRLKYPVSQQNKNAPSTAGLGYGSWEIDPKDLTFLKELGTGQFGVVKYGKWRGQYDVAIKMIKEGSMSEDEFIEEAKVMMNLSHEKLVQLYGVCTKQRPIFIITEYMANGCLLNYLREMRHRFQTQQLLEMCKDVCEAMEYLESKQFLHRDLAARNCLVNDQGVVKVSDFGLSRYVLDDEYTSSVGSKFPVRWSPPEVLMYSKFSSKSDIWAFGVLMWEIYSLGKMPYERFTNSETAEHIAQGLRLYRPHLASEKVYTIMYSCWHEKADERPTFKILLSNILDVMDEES
T2 sequence (Q06187 whole entry C481S): as the sequence (Q06187 whole entry) above, with C481S counted along it
T1 sequence (P00533 25-1210): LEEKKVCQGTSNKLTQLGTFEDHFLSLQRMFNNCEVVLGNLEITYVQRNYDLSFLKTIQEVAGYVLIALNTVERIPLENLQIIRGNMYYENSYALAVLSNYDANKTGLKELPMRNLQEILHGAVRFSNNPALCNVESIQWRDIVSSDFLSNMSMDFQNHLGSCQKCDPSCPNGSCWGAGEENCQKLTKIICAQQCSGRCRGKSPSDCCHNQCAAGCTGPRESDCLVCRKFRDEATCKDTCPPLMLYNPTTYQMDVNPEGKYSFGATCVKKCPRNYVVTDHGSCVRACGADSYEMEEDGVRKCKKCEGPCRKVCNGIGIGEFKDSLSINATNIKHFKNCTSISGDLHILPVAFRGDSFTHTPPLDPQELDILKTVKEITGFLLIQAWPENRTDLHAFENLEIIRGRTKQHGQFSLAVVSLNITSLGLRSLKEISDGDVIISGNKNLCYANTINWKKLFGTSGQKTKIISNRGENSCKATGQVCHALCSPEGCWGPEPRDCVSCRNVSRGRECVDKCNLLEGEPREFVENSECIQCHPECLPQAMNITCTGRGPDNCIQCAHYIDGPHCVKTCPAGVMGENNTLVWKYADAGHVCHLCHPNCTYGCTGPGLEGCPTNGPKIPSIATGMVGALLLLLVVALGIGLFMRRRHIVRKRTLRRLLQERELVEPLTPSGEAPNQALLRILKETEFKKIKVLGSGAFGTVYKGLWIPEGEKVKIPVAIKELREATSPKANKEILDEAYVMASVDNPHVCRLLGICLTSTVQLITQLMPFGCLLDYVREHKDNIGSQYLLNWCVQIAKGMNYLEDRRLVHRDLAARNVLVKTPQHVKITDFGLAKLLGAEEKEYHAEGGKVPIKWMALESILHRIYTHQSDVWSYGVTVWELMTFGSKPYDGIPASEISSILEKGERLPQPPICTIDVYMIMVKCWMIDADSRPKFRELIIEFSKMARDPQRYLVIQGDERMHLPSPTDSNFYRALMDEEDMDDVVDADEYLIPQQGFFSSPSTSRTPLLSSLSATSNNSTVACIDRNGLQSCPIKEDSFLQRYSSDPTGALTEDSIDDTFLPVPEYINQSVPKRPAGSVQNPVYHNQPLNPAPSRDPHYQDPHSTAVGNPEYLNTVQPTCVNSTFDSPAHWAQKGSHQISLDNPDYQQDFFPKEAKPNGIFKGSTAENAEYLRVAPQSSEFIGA

IC50 (Recombinant EGFR)	IC50 [1]	IC50 [2]	IC50 [3]	Structure (SMILES)
1000 to 10000 nM	10 to 100 nM	< 10 nM	< 10 nM	COC(=O)c1ccc(-n2nc(-c3ccc(CNC(=O)c4ccccc4OC)cc3)c(C(N)=O)c2N)cc1 [Example 45, Methyl 4-[5-amino-4-carbamoyl-3-[4-[[(2-methoxybenzoyl)amino]methyl]phenyl]pyrazol-1-yl]benzoate]
100 to 1000 nM	10 to 100 nM	< 10 nM	< 10 nM	COc1ccccc1C(=O)NCc1ccc(-c2nn(-c3ccc(C)cc3)c(N)c2C(N)=O)cc1 [Example 44, 5-amino-3-[4-[[(2-methoxybenzoyl)amino]methyl]phenyl]-1-(p-tolyl)pyrazole-4-carboxamide]
> 10000 nM	100 to 1000 nM	< 10 nM	< 10 nM	COc1ccccc1C(=O)NCc1cc(F)c(-c2nn(C3CCCC3)c(N)c2C(N)=O)c(F)c1 [Example 140, 5-amino-1-cyclopentyl-3-[2,6-difluoro-4-[[(2-methoxybenzoyl)amino]methyl]phenyl]pyrazole-4-carboxamide]
1000 to 10000 nM	10 to 100 nM	< 10 nM	< 10 nM	COc1ccccc1C(=O)NCc1ccc(-c2nn(C3CC(=O)c4ccccc43)c(N)c2C(N)=O)cc1 (centres unmarked) [Example 59, 5-amino-3-[4-[[(2-methoxybenzoyl)amino]methyl]phenyl]-1-(3-oxoindan-1-yl)pyrazole-4-carboxamide]
100 to 1000 nM	100 to 1000 nM	< 10 nM	< 10 nM	CNc1c(C(N)=O)c(-c2ccc(CNC(=O)c3ccccc3OC)cc2)nn1C1CCC1 [Example 87, 1-cyclobutyl-3-[4-[[(2-methoxybenzoyl)amino]methyl]phenyl]-5-(methylamino)pyrazole-4-carboxamide]
1000 to 10000 nM	1000 to 10000 nM	10 to 100 nM	10 to 100 nM	COc1ccccc1C(=O)NCc1ccc(-c2nn(C3CC(C)(C)OC3(C)C)c(N)c2C(N)=O)cc1 (centres unmarked) [Example 82, 5-amino-3-[4-[[(2-methoxybenzoyl)amino]methyl]phenyl]-1-(2,2,5,5-tetramethyltetrahydrofuran-3-yl)pyrazole-4-carboxamide]
> 10000 nM	100 to 1000 nM	10 to 100 nM	10 to 100 nM	COc1ccccc1C(=O)NCc1ccc(-c2nn(C)c(N)c2C(N)=O)cc1 [Example 30, 5-Amino-3-[4-[[(2-methoxybenzoyl)amino]methyl]phenyl]-1-methyl-pyrazole-4-carboxamide]
100 to 1000 nM	10 to 100 nM	< 10 nM	< 10 nM	COc1ccccc1C(=O)NCc1ccc(-c2nn(-c3ccc(F)cc3)c(N)c2C(N)=O)cc1 [Example 43, 5-amino-1-(4-fluorophenyl)-3-[4-[[(2-methoxybenzoyl)amino]methyl]phenyl]pyrazole-4-carboxamide]
1000 to 10000 nM	10 to 100 nM	< 10 nM	< 10 nM	CCC(n1nc(-c2ccc(CNC(=O)c3cc(F)ccc3OC)cc2)c(C(N)=O)c1N)C(F)(F)F (centres unmarked) [Example 181, 5-amino-3-[4-[[(5-fluoro-2-methoxy-benzoyl)amino]methyl]phenyl]-1-[1-(trifluoromethyl)propyl]pyrazole-4-carboxamide]
1000 to 10000 nM	10 to 100 nM	< 10 nM	< 10 nM	COc1ccc(F)cc1C(=O)NCc1ccc(-c2nn(C(C)C(F)(F)F)c(N)c2C(N)=O)cc1 (centres unmarked) [Example 120, 5-amino-3-[4-[[(5-fluoro-2-methoxy-benzoyl)amino]methyl]phenyl]-1-(2,2,2-trifluoro-1-methyl-ethyl)pyrazole-4-carboxamide]
100 to 1000 nM	10 to 100 nM	< 10 nM	< 10 nM	COc1ccccc1C(=O)NCc1ccc(-c2nn(C3CCCC3)c(N)c2C(N)=O)cc1F [Example 93, 5-amino-1-cyclopentyl-3-[3-fluoro-4-[[(2-methoxybenzoyl)amino]methyl]phenyl]pyrazole-4-carboxamide]
